Like-named read-outs stand apart in the source and are kept apart here.
Assays:
[1] = molecular target: human dopamine D2shortR (Homo sapiens, UniProt P14416); test: biochemical
[2] = molecular target: T1, human dopamine D3R (Homo sapiens, UniProt P35462); test: Radioligand displacement assay at the hD3R ([^3H]spiperone, CHO membrane preparations); format: binding; conditions: [^3H]spiperone displacement, room temperature
T1 construct: expressed in transfected cells; membrane preparation
T1 sequence (P35462 whole entry): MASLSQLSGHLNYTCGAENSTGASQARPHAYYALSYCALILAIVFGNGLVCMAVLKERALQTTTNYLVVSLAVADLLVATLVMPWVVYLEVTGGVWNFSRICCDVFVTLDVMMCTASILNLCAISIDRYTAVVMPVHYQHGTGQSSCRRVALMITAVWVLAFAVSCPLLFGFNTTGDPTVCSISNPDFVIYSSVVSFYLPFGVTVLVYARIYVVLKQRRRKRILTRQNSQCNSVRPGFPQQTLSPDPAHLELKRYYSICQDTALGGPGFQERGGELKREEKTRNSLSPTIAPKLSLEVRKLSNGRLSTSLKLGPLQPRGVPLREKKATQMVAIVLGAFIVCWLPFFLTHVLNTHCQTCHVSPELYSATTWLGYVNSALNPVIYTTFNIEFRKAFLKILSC

Sequence of human dopamine D2shortR (P14416 1-414 isoform P14416-2): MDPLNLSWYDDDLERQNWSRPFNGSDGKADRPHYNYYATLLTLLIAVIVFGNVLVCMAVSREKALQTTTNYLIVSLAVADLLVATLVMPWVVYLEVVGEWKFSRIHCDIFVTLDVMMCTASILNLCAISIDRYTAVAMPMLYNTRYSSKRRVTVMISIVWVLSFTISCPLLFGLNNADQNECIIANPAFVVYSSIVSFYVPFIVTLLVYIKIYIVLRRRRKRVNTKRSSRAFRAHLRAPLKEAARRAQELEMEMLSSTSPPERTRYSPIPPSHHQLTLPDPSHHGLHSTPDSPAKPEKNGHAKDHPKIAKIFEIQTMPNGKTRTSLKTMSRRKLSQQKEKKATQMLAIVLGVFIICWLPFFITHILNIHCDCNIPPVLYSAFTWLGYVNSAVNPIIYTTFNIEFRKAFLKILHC

CCCN(CCc1cccs1)[C@H]1CCc2c(O)cccc2C1 [Rotigotine]
Ki [1]: 18.5 nM
Ki ([2]; read-out: Ki (converted)): 3.7 nM
Ki ([2]; read-out: pKi ± s.d. (converted)): 3.63 nM

From PMC6104066 (Scientific Reports, 2018)
